Assay results reported in patent publication US20100204343A1, “3-(4-HYDROXY-3-METHOXYPHENYL)-1-(4-HYDROXYPHENYL)-1-PROPANONE AND ITS USE AS ANTIOXIDANT” (SYMRISE GmbH & Co. KG, priority 2007, published 2010).
≈ marks a conversion by molar mass, not a printed value.

Experiments:
[1] = ABTS assay, antioxidant capacity (cell free in vitro test); format: biochemical; settings: ABTS discolouration measured photometrically at 734 nm; 96-well plates, 5 concentrations
Method: The antioxidant capacity of 3-(4-hydroxy-3-methoxyphenyl)-1-(4-hydroxyphenyl)-1-propanone of formula (I) disclosed here was evaluated with the ABTS assay, a cell free in vitro test. The assay principle bases on the chemical reduction being accompanied by discolouration of the green coloured cationic radical 2,2′-Azinobis(3-ethylbenzothiazoline 6-sulfonic acid) (ABTS^+) by antioxidants. The grade of discolouration can be measured photometrically at 734 nm. The compound of formula (I) as well as standard antioxidants like Trolox, a water soluble alpha-tocopherol analog and green tea extract were tested on 96-well microtiter plates at 5 concentrations. Each concentration was tested in double in two independent experiments. IC50 values for the compound of formula (I) as well as for the comparative examples are depicted in table 1.
Therefore, the compound of formula (I) is a highly suitable new product either to protect biological systems from damage caused by free radicals of different type and origin or to extend the shelf life of products comprising highly unstable, easily oxidising molecules.

Stability studies = format: physicochemical; settings: in contrast to common antioxidants like Trolox, alpha-tocopherol or green tea extract

IC50 [1] [µg/mL] | stability (Stability studies) | Compound
5 (≈ 18.4 µM) | highly stable | COc1cc(CCC(=O)c2ccc(O)cc2)ccc1O [3-(4-hydroxy-3-methoxyphenyl)-1-(4-hydroxyphenyl)-1-propanone]
6 (≈ 24 µM) |  | Cc1c(C)c2c(c(C)c1O)CCC(C)(C(=O)O)O2 (stereo not drawn) [Trolox, 6-hydroxy-2,5,7,8-tetramethylchroman-2-carboxylic acid, reference compound]
